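Grown in 96-well plates, cells were treated for 48 hours with each compound at five concentrations. Insufficient inhibition: endpoint recorded as highest concentration tested. Abbreviation: GI50, concentration required for 50% inhibition of growth. TGI: total growth inhibition.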
Key:
Assay in all cases: DTP human tumour cell line panel, 48 h
[1] = tested on: HOP-62 NSCLC
[2] = tested on: OVCAR-5 ovarian
[3] = tested on: DU-145 prostate
[4] = tested on: MCF7 breast
[5] = tested on: A549 NSCLC
[6] = tested on: CAKI-1 renal
[7] = tested on: SW-620 colon
[8] = tested on: SF-295 CNS
[9] = tested on: UO-31 renal
[10] = tested on: MALME-3M melanoma
[11] = tested on: MOLT-4 leukemia
[12] = tested on: SNB-75 CNS
[13] = tested on: UACC-257 melanoma
[14] = tested on: LOX IMVI melanoma
[15] = tested on: HCC-2998 colon
[16] = tested on: TK-10 renal
[17] = tested on: RXF 393 renal
[18] = tested on: HL-60(TB) leukemia
[19] = tested on: RPMI-8226 leukemia
[20] = tested on: COLO 205 colon
[21] = tested on: T-47D breast
[22] = tested on: HS 578T breast
[23] = tested on: SN12C renal
[24] = tested on: NCI/ADR-RES ovarian
[25] = tested on: SK-MEL-2 melanoma
[26] = tested on: PC-3 prostate
[27] = tested on: SR leukemia
[28] = tested on: 786-0 renal
[29] = tested on: U251 CNS
[30] = tested on: A498 renal
[31] = tested on: SK-OV-3 ovarian
[32] = tested on: CCRF-CEM leukemia
[33] = tested on: OVCAR-4 ovarian
[34] = tested on: UACC-62 melanoma
[35] = tested on: HCT-15 colon
[36] = tested on: SK-MEL-28 melanoma
[37] = tested on: MDA-MB-231 breast
[38] = tested on: MDA-MB-435
[39] = tested on: BT-549 breast
[40] = tested on: SF-539 CNS
[41] = tested on: ACHN renal
[42] = tested on: OVCAR-8 ovarian
[43] = tested on: EKVX NSCLC
[44] = tested on: SK-MEL-5 melanoma
[45] = tested on: HT29 colon
[46] = tested on: M14 melanoma
[47] = tested on: KM12 colon
[48] = tested on: SF-268 CNS
[49] = tested on: K-562 leukemia
[50] = tested on: IGROV1 ovarian
[51] = tested on: NCI-H460 lung
[52] = tested on: HOP-92 NSCLC
[53] = tested on: NCI-H226 lung
[54] = tested on: HCT-116 colon
[55] = tested on: SNB-19 CNS
[56] = tested on: OVCAR-3 ovarian
[57] = tested on: MDA-MB-468 breast
[58] = tested on: NCI-H23 lung

With FC(F)(F)c1cc2c(Cl)ncnc2n1CCN1CCCCC1 the GI50 [1] was 38.1 µM, the TGI [1] was > 100 µM and the GI50 [2] was > 100 µM. The TGI [2] was > 100 µM, the GI50 [3] was 30.5 µM and the TGI [3] was > 100 µM. It also gave a GI50 [4] of 19.6 µM, a TGI [4] of 76.5 µM and a GI50 [5] of 80.1 µM. For the same compound, the TGI [5] was > 100 µM, the GI50 [6] was 25.3 µM and the TGI [6] was > 100 µM. It also gave a GI50 [7] of 11.2 µM, a TGI [7] of 28.7 µM and a GI50 [8] of 22.6 µM. It also gave a TGI [8] of 86.3 µM, a GI50 [9] of 1.74 µM and a TGI [9] of 3.58 µM. It also gave a GI50 [10] of 19 µM, a TGI [10] of 55.4 µM and a GI50 [11] of 10.5 µM. For the same compound, the TGI [11] was 55.2 µM, the GI50 [12] was 10.5 µM and the TGI [12] was 22.5 µM. It also gave a GI50 [13] of 11.8 µM, a TGI [13] of 30.4 µM and a GI50 [14] of 1.69 µM. For the same compound, the TGI [14] was 3.11 µM, the GI50 [15] was 4.11 µM and the TGI [15] was 14.3 µM. For the same compound, the GI50 [16] was > 100 µM, the TGI [16] was > 100 µM and the GI50 [17] was 15.6 µM. It also gave a TGI [17] of 40.9 µM, a GI50 [18] of 2.07 µM and a TGI [18] of 7.47 µM. For the same compound, the GI50 [19] was 31.5 µM, the TGI [19] was > 100 µM and the GI50 [20] was 52.7 µM. For the same compound, the TGI [20] was > 100 µM, the GI50 [21] was 21.9 µM and the TGI [21] was > 100 µM. The GI50 [22] was 16.4 µM, the TGI [22] was 60 µM and the GI50 [23] was 19.4 µM. For the same compound, the TGI [23] was > 100 µM, the GI50 [24] was 24 µM and the TGI [24] was 64.8 µM. The GI50 [25] was 16.5 µM, the TGI [25] was 32.9 µM and the GI50 [26] was 15.2 µM. The TGI [26] was 47.9 µM, the GI50 [27] was 3.28 µM and the TGI [27] was 26.1 µM. The GI50 [28] was 39.8 µM, the TGI [28] was > 100 µM and the GI50 [29] was 14.1 µM. For the same compound, the TGI [29] was 34.9 µM, the GI50 [30] was > 100 µM and the TGI [30] was > 100 µM. The GI50 [31] was 52.3 µM, the TGI [31] was > 100 µM and the GI50 [32] was 11 µM. For the same compound, the TGI [32] was > 100 µM, the GI50 [33] was 28.5 µM and the TGI [33] was > 100 µM. For the same compound, the GI50 [34] was 12.2 µM, the TGI [34] was 30.5 µM and the GI50 [35] was 3.16 µM. It also gave a TGI [35] of 12.8 µM, a GI50 [36] of 16 µM and a TGI [36] of 37.7 µM. For the same compound, the GI50 [37] was 5.47 µM, the TGI [37] was 19.7 µM and the GI50 [38] was 13.1 µM. For the same compound, the TGI [38] was 29.9 µM, the GI50 [39] was 15 µM and the TGI [39] was 29.8 µM. For the same compound, the GI50 [40] was 17.1 µM, the TGI [40] was 36.2 µM and the GI50 [41] was 6.46 µM. The TGI [41] was > 100 µM, the GI50 [42] was 12.5 µM and the TGI [42] was 32.8 µM. It also gave a GI50 [43] of 16.3 µM, a TGI [43] of 85.5 µM and a GI50 [44] of 14.9 µM. It also gave a TGI [44] of 31.1 µM, a GI50 [45] of 21.1 µM and a TGI [45] of 81.3 µM. For the same compound, the GI50 [46] was 12.8 µM, the TGI [46] was 33.4 µM and the GI50 [47] was 29.8 µM. The TGI [47] was > 100 µM, the GI50 [48] was 16 µM and the TGI [48] was 38.6 µM. For the same compound, the GI50 [49] was 2.91 µM, the TGI [49] was > 100 µM and the GI50 [50] was 2.98 µM. For the same compound, the TGI [50] was 10.3 µM, the GI50 [51] was 18.3 µM and the TGI [51] was 50.6 µM. It also gave a GI50 [52] of 19.7 µM, a TGI [52] of 53.8 µM and a GI50 [53] of 60.6 µM. For the same compound, the TGI [53] was > 100 µM, the GI50 [54] was 4.86 µM and the TGI [54] was 20.3 µM. The GI50 [55] was 15.2 µM, the TGI [55] was 31.3 µM and the GI50 [56] was 17.6 µM. It also gave a TGI [56] of 35.5 µM, a GI50 [57] of 3.02 µM and a TGI [57] of 9.43 µM. It also gave a GI50 [58] of 13.9 µM and a TGI [58] of 39.3 µM.
